Experiments:
[1] = system: NCI-H460 human lung cancer cell line; experiment: MTT cytotoxicity assay, NCI-H460; format: cell-based; details: Homo sapiens, NCI-H460, 48 h, mean ± SD from three independent experiments
Procedure: (§1) The in vitro antiproliferative activity of the DHAA derivatives 3a–o and 4a–o against four human cancer cell lines (MGC-803 human gastric cancer cell line, CNE-2 human nasopharyngeal carcinoma cell line, SK-OV-3 human ovarian carcinoma cell line, NCI-H460 human lung cancer cell line) and the human normal liver cell line LO2 were evaluated by MTT (methyl thiazolytetrazolium) assay and compared with the parent compound DHAA and the positive control cisplatin in each panel.
(§2) The cytotoxicity of the compounds was evaluated against NCI-H460, MGC-803, SK-OV-3, CNE-2 and LO2 using an MTT assay. Cells were grown on 96-well micro-plates at a density of 4 × 10^3 cells per well in DMEM (dulbecco’s modified eagle medium) medium with 10% FBS (fetal bovine serum). The plates were incubated at 37 °C with 5% CO2. The cells were then exposed to different concentrations of target compounds and cisplatin and incubated for another 48 h. Control wells were formed by culture media with the maximum concentration of DMSO used in each assay (1‰). The cells were stained with 20 µL of MTT in an incubator for about 4 h. The medium was thrown away and replaced by […] DMSO. The absorbance (OD) value was read at 490 nm on an enzyme labeling instrument. Each experiment was repeated at least three times to obtain the mean values.

[2] = system: SK-OV-3 human ovarian carcinoma cell line; experiment: MTT cytotoxicity assay, SK-OV-3; format: cell-based; details: Homo sapiens, SK-OV-3, 48 h, mean ± SD from three independent experiments
Procedure: as §1, §2

[3] = system: MGC-803 cells; experiment: Apoptosis analysis, Annexin-V/FITC and PI, flow cytometry; format: cell-based, human; details: 48 h, control 9.3%
Procedure: In order to further confirm whether the 4j-induced reduction in cell viability was responsible for the induction of apoptosis, MGC-803 cells were investigated using the PI and Annexin-V/FITC (fluorescein isothiocyanate) and the number of apoptotic cells was estimated by flow cytometry, after the treatment of the MGC-803 cells at concentrations of 5 and 10 µM for 48 h. The results are illustrated in Figure 2.
MGC-803 cells were seeded at a concentration of 2 × 10^6 cells/mL of the DMEM medium with 10% FBS on 6-well plates to the final volume of 2 mL, and then treated with compound 4j at different concentrations for 48 h. After 48 h, the cells were collected and washed twice with PBS and then resuspended in 100 µL 1 × binding buffer, The cells were subjected to 5 µL of FITC Annexin V and 5 µL propidium iodide (PI) staining using an annexin-V FITC apoptosis kit (BD, Pharmingen) and incubated for 30 min at RT (25 °C) in the dark. Then, 100µL 1× binding buffer were added. The apoptosis ratio was quantified by system software (Cell Quest; BD Biosciences, Becton Dickinson FACSAriaIII, NY, USA).

[4] = system: MGC-803, CNE-2, SK-OV-3, NCI-H460; experiment: MTT cytotoxicity assay, summary over the four cancer cell lines; format: cell-based; details: Homo sapiens; range over MGC-803, CNE-2, SK-OV-3, NCI-H460; read-out: IC50 values ranging against all the test cell lines
Procedure: as §1, §2

[5] = system: MGC-803 cells; experiment: Hoechst 33258 staining assay; format: cell-based, human; details: 48 h
Procedure: Hoechst 33258 is a dye that is utilized to identify the transitions of a cell’s nuclear morphology. To determine the morphological changes induced by compound 4j in MGC-803 cells, Hoechst 33258 staining was carried out. MGC-803 cells were treated with various concentrations (0, 1.0, 5.0, 10 µM) of compound 4j for 48 h, and stained with Hoechst 33258.
Cells grown on a sterile cover slip in six-well plates were treated with different concentrations of the test compound for 48 h. The culture medium containing compounds was removed, and the cells were fixed in 4% paraformaldehyde for 10 min. After being washed twice with PBS, the cells were stained with 0.5 mL of Hoechst 33258 (Beyotime, Shanghai, China) for 5 min, and then again washed twice with PBS. The stained nuclei were observed under an OLYMPUS 1X73 fluorescence microscope using 350 nm for excitation and 460 nm for emission.

[6] = system: MGC-803 human gastric cancer cell line; experiment: MTT cytotoxicity assay, MGC-803; format: cell-based; details: Homo sapiens, MGC-803, 48 h, mean ± SD from three independent experiments
Procedure: as §1, §2

[7] = system: CNE-2 human nasopharyngeal carcinoma cell line; experiment: MTT cytotoxicity assay, CNE-2; format: cell-based; details: Homo sapiens, CNE-2, 48 h, mean ± SD from three independent experiments
Procedure: as §1, §2

[8] = system: human normal liver cell line LO2; experiment: MTT cytotoxicity assay, normal LO2 cells; format: cell-based; details: Homo sapiens, L02, 48 h, mean ± SD from three independent experiments
Procedure: as §1, §2

[9] = system: MGC-803 cells; experiment: Cell cycle analysis by PI staining and flow cytometry; format: cell-based, human; details: MGC-803, 48 h
Procedure: To determine the possible role of cell cycle arrest in 4j-induced growth inhibition, MGC-803 cells were treated with different concentrations of compound 4j for 48 h. The cell cycle distribution was investigated by flow cytometric analysis following the staining of DNA with propidium iodide (PI).
The MGC-803 cell line was treated with different concentrations of compound 4j. After 48 h of incubation, cells were washed twice with ice-cold PBS, fixed and permeabilized with ice-cold 70% ethanol at −20 °C overnight. The cells were treated with 100 µg /mL RNase A at 37 °C for 30 min, after being washed with ice-cold PBS, and finally stained with 1 mg/mL propidium iodide (PI) (BD, Pharmingen) in the dark at 4 °C for 30 min. Analysis was performed with the system software (Cell Quest; BD Biosciences, Becton Dickinson FACSAriaIII, NY, USA).

CC(C)c1ccc2c(c1)CCC1[C@](C)(C(=O)OCC3CN(c4ccc(F)cc4)C(=O)O3)CCC[C@]21C (stereo partly drawn) [Compound 4j, (1R,4aS)-(3-(4-Fluorophenyl)-2-Oxooxazolidin-5-yl)Methyl-7-Isopropyl-1,4a-Dimethyl-1,2,3,4,4a,9,10,10a-Octahydrophenanthrene-1-Carboxylate]
IC50 [1]: 8.44 ± 0.36 µM | IC50 [2]: 4.66 ± 2.13 µM | percentage of all apoptotic cells (early and late) ([3]; 5 µM): 28.5% | percentage of all apoptotic cells (early and late) ([3]; 10 µM): 34.3% | IC50 [4]: 3.82 to 17.8 µM | melting point: 112.8 to 117.5 °C | nuclear morphological changes (Hoechst 33258) ([5]; 10.0 µM): number of apoptotic nuclei significantly increased | nuclear morphological changes (Hoechst 33258) ([5]; 1.0 and 5.0 µM): some exhibited bright-blue fluorescence due to chromatin condensation | IC50 [6]: 3.82 ± 0.18 µM | IC50 [7]: 17.8 ± 4.69 µM | IC50 [8]: > 100 µM | cell cycle arrest [9]: mainly arrested the MGC-803 cells in the G1 phase

Source: PMC6213879, “Synthesis and Biological Evaluation of Novel Dehydroabietic Acid-Oxazolidinone Hybrids for Antitumor Properties” (International Journal of Molecular Sciences, 2018)
